# Results from patent US10435392B2, “Bipyrazole derivatives as JAK inhibitors” (Incyte Corporation, priority 2013, dated 2019).
# Structures can show the parent of a compound that is named as a salt.
# Test system: human JAK1
# Assay: In vitro JAK kinase assay (HTRF, phosphorylation of a biotinylated peptide), JAK1
# Type: biochemical
# Details: ratio of IC50 values at 1 mM ATP
# Protocol: The catalytic activity of JAK1, JAK2 or JAK3 was assayed by measuring the phosphorylation of a biotinylated peptide. The phosphorylated peptide was detected by homogenous time resolved fluorescence (HTRF). […] Reactions were carried out at room temperature for 1 hour and then stopped with 20 μL 45 mM EDTA, 300 nM SA-APC, 6 nM Eu-Py20 in assay buffer (Perkin Elmer, Boston, Mass.). Binding to the Europium labeled antibody took place for 40 minutes and HTRF signal was measured on a Fusion plate reader (Perkin Elmer, Boston, Mass.).
row,SMILES,JAK2/JAK1
1,"Cc1[nH]ncc1-c1cnn(C2(CC#N)CN(c3cnc(C(=O)N[C@@H](C)C(F)(F)F)cn3)C2)c1 [Example 1, 5-[3-(Cyanomethyl)-3-(3′-methyl-1H,1′H-4,4′-bipyrazol-1-yl)azetidin-1-yl]-N-[(1S)-2,2,2-trifluoro-1-methylethyl]pyrazine-2-carboxamide trifluoroacetate]",>10
2,"Cc1n[nH]cc1-c1cnn(C2(CC#N)CN(c3ccc(C(=O)NC(C)C)cc3)C2)c1 [Example 3, 4-[3-(Cyanomethyl)-3-(3′-methyl-1H,1′H-4,4′-bipyrazol-1-yl)azetidin-1-yl]-N-isopropylbenzamide Trifluoroacetate]",>10
3,"C[C@H](NC(=O)c1cc(F)c(N2CC(CC#N)(n3cc(-c4cn[nH]c4)cn3)C2)cc1F)C(F)(F)F [Example 5, 4-[3-(1H,1′H-4,4′-Bipyrazol-1-yl)-3-(cyanomethyl)azetidin-1-yl]-2,5-difluoro-N-[(1S)-2,2,2-trifluoro-1-methylethyl]benzamide Trifluoroacetate]",>10
4,"Cc1n[nH]c(C)c1-c1cnn(C2(CC#N)CN(c3cnc(C(=O)N[C@@H](C)C(F)(F)F)cn3)C2)c1 [Example 9, 5-[3-(Cyanomethyl)-3-(3′,5′-dimethyl-1H,1′H-4,4′-bipyrazol-1-yl)azetidin-1-yl]-N-[(1S)-2,2,2-trifluoro-1-methylethyl]pyrazine-2-carboxamide Trifluoroacetate]",>10
5,"Cc1n[nH]cc1-c1cn(C2(CC#N)CN(c3cc(F)c(C(=O)N[C@@H](C)C(F)(F)F)cc3F)C2)nc1CO [Example 13, 4-{3-(Cyanomethyl)-3-[3-(hydroxymethyl)-3′-methyl-1H,1′H-4,4′-bipyrazol-1-yl]azetidin-1-yl}-2,5-difluoro-N-[(1S)-2,2,2-trifluoro-1-methylethyl]benzamide]",>10

# Now from value to molecule:
row,JAK2/JAK1,SMILES
1,>10,"Cc1n[nH]cc1-c1cnn(C2(CC#N)CN(c3cnc(C(=O)NC(C)C)cn3)C2)c1 [Example 2, 5-[3-(Cyanomethyl)-3-(3′-methyl-1H,1′H-4,4′-bipyrazol-1-yl)azetidin-1-yl]-N-isopropylpyrazine-2-carboxamide Trifluoroacetate]"
2,>10,"Cc1n[nH]cc1-c1cn(C2(CC#N)CN(c3cnc(C(=O)NC(C)C)cn3)C2)nc1C [Example 6, 5-[3-(Cyanomethyl)-3-(3,3′-dimethyl-1H,1′H-4,4′-bipyrazol-1-yl)azetidin-1-yl]-N-isopropylpyrazine-2-carboxamide Trifluoroacetate]"
